Results on three molecules are retold here after article PMC12775434, “Ultra-large virtual screening unveils potent agonists of the neuromodulatory orphan receptor GPR139” (Nature Communications, 2025).

Assay type in all cases: cell-based
Test [1] addresses T1, GPR139 (Homo sapiens, UniProt Q6DWJ6).
T1 sequence (Q6DWJ6 1-353): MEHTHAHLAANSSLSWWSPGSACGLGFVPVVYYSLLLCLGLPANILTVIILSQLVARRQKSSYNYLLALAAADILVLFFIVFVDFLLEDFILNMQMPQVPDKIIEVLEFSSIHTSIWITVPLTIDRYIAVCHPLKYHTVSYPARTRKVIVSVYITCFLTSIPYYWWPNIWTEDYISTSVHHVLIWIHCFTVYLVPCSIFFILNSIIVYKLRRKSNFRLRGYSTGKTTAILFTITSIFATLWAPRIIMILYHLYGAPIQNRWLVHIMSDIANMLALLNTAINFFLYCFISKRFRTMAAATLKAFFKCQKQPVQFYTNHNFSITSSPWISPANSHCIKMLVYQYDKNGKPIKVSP
Briefly: Ca2+ mobilization assay, agonist mode, stable GPR139-CHOk1 cell line. The note with it: for Emax: normalized to Lundbeck Cmp 1a, read-out: Emax (%) Ca2+. Summed up:
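Agonist activity of compounds is assessed in stably transfected CHO-K1 cells using the calcium dye Fluo-4 at 37 °C in HEPES-buffered HBSS (pH 7.4). Efficacy is expressed relative to the reference agonist Lundbeck Cmp 1a, set as 100%.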
On the technique in general: A change in cytosolic calcium serves as a functional read-out for many receptors and channels.

The target in test [2] is T1, GPR139. The experiment in a line: Ca2+ mobilization assay, antagonist mode (EC80 800 nM Lundbeck Cmp 1a after 20 min preincubation), GPR139-CHOk1. The note with it: individual replicates (Supplementary Figure 1). The essentials:
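Antagonist mode: 800 nM (EC80) reference agonist Lundbeck Cmp 1a added following 20 min pre-incubation with 10 µM compound. GPR139-CHOk1 cells, Fluo-4 dye, probenecid-containing HEPES buffer pH 7.4; intracellular Ca2+ measured at 37 °C (ex 485, em 525 nm).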

Test [3] concerns the target T2, human muscarinic acetylcholine M1 receptor (M1R) (Homo sapiens, UniProt P11229).
T2 sequence (P11229 1-460): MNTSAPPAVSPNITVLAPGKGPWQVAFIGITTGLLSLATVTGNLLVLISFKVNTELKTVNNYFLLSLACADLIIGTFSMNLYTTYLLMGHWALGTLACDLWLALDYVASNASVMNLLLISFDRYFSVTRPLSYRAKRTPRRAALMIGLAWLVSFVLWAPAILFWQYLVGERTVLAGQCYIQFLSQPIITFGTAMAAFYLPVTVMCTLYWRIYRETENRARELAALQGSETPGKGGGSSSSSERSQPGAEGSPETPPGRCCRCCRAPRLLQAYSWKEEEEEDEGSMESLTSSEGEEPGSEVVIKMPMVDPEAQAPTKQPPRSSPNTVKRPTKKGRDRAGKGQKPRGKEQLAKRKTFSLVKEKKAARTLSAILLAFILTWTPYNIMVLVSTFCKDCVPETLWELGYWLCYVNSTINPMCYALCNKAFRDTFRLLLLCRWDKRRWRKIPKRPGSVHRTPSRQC
Briefly: Ca2+ mobilization counter-screen in M1R-CHOk1 cells.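 Further: 10 µM test compound.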 The note with it: individual replicates (Supplementary Figure 2). The essentials: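 Fluorescence (ex 485 nm, em 525 nm) recorded at 37 °C after automated compound addition to CHO-K1 cells stably expressing M1R. Cells were dye-loaded with 2 µM Fluo-4 AM for 1 h at 37 °C, with 2.5 mM probenecid present; final DMSO at most 0.3%.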

Where [4] appears, read: 0.1 µM, individual replicates (Supplementary Figure 3).
[5] abbreviates: 1 µM, individual replicates (Supplementary Figure 3).
Setting [6] is: 10 µM, individual replicates (Supplementary Figure 3).
Where [7] appears, read: Agonist mode, individual replicates (Supplementary Figure 1).
[8] abbreviates: Supplementary Table 2, mean ± SEM, read-out: pEC50 Ca2+ (converted).
The mark [9] stands for this setting: Supplementary Table 2, mean ± SEM.
Where [10] appears, read: log [Compound] M -4.5, replicate experiments.
The mark [11] stands for this setting: log [Compound] M -5.0, replicate experiments.
The mark [12] stands for this setting: log [Compound] M -5.5, replicate experiments.
[13] abbreviates: log [Compound] M -6.0, replicate experiments.
Where [14] appears, read: log [Compound] M -6.5, replicate experiments.
[15] abbreviates: log [Compound] M -7.0, replicate experiments.
Setting [16] is: log [Compound] M -7.5, replicate experiments.
The mark [17] stands for this setting: log [Compound] M -8.0, replicate experiments.
Setting [18] is: log [Compound] M -8.5, replicate experiments.
[19] abbreviates: log [Compound] M -9.0, replicate experiments.
The mark [20] stands for this setting: primary screen, 10 µM compound, agonist mode, three columns = independent experiments.

“And” between values parts separate entries of the source, which are not always exact repeats. Equal values may be shown once. Read-outs that look alike come from different tables or passages of the source.

For orientation: Emax means the maximal effect, on the per cent scale that the assay sets.

For `Cc1noc(C(C)NC(=O)Nc2cccc(-c3ccccc3)c2)n1` (stereo not drawn) [Compound 3, CC(NC(=O)NC=1C=CC=C(C1)C=2C=CC=CC2)C3=NC(C)=NO3], the “Ca2+ signal (% of Cmp 1a)” value was 5.3 % of Cmp 1a and 10.2 % of Cmp 1a at GPR139 [1] (setting [4]); 18.7 % of Cmp 1a and 1.8 % of Cmp 1a at GPR139 [1] (setting [5]); 46.3 % of Cmp 1a at GPR139 [1] (setting [6]); 55 % of Cmp 1a and 56 % of Cmp 1a and 62 % of Cmp 1a on GPR139 [1] (setting [7]); 57 % of Cmp 1a and 72 % of Cmp 1a and 70 % of Cmp 1a on GPR139 [1] (setting [10]); 55 % of Cmp 1a and 59 % of Cmp 1a and 65 % of Cmp 1a at GPR139 [1] (setting [11]). The “Ca2+ signal (% of Cmp 1a)” value was 25 % of Cmp 1a and 54 % of Cmp 1a and 37 % of Cmp 1a at GPR139 [1] (setting [12]); 11 % of Cmp 1a and 34 % of Cmp 1a and 21 % of Cmp 1a at GPR139 [1] (setting [13]); -1.52 % of Cmp 1a and 4.42 % of Cmp 1a and 16 % of Cmp 1a at GPR139 [1] (setting [14]); -7 % of Cmp 1a and -0.413 % of Cmp 1a and 6 % of Cmp 1a on GPR139 [1] (setting [15]); -4.33 % of Cmp 1a and 4 % of Cmp 1a and 8 % of Cmp 1a at GPR139 [1] (setting [16]); -1.83 % of Cmp 1a and -3.24 % of Cmp 1a and 5 % of Cmp 1a on GPR139 [1] (setting [17]). The “Ca2+ signal (% of Cmp 1a)” value is -10 % of Cmp 1a and -2 % of Cmp 1a and 4.52 % of Cmp 1a at GPR139 [1] (setting [18]); 0.621 % of Cmp 1a and -0.857 % of Cmp 1a and 2.53 % of Cmp 1a at GPR139 [1] (setting [19]); 55 % of Cmp 1a and 56 % of Cmp 1a and 62 % of Cmp 1a on GPR139 [1] (setting [20]); 29.8327 % of Cmp 1a and 24.7661 % of Cmp 1a and 29.9717 % of Cmp 1a at GPR139 [2]. For the same molecule, on GPR139 [1] (setting [8]), the EC50 is 2.51 µM. Further, the Emax on GPR139 [1] (setting [9]) amounted to 70 ± 3%. Also, in test [3], the “Ca2+ signal (% of Carbachol)” value is -13 % of Carbachol and -10 % of Carbachol.

As for `Cc1noc(CNC(=O)C2(C)CCCCN2C(=O)c2ccccc2)n1` (stereo not drawn) [Compound 4, CC1=NOC(CNC(=O)C2(C)CCCCN2C(=O)C=3C=CC=CC3)=N1], the “Ca2+ signal (% of Cmp 1a)” value at GPR139 [1] (setting [4]) was -4.2 % of Cmp 1a and 0.43 % of Cmp 1a; on GPR139 [1] (setting [5]), 9.8 % of Cmp 1a and 4.1 % of Cmp 1a; on GPR139 [1] (setting [6]) it was 51.3 % of Cmp 1a and 47.8 % of Cmp 1a; on GPR139 [1] (setting [7]) it was 75 % of Cmp 1a and 80 % of Cmp 1a and 81 % of Cmp 1a; on GPR139 [1] (setting [10]) it was 98 % of Cmp 1a and 82 % of Cmp 1a; on GPR139 [1] (setting [11]) it was 75 % of Cmp 1a and 63 % of Cmp 1a. Besides, the “Ca2+ signal (% of Cmp 1a)” value on GPR139 [1] (setting [12]) is 44 % of Cmp 1a and 46 % of Cmp 1a; on GPR139 [1] (setting [13]), 13 % of Cmp 1a and 24 % of Cmp 1a; on GPR139 [1] (setting [14]) it was 4.41 % of Cmp 1a and 3 % of Cmp 1a; at GPR139 [1] (setting [15]), 3.62 % of Cmp 1a and -1.16 % of Cmp 1a; at GPR139 [1] (setting [16]), -4.26 % of Cmp 1a and -2.55 % of Cmp 1a; at GPR139 [1] (setting [17]), -0.711 % of Cmp 1a and -3.49 % of Cmp 1a. The “Ca2+ signal (% of Cmp 1a)” value is 5.56 % of Cmp 1a and 4.65 % of Cmp 1a at GPR139 [1] (setting [18]); -1.86 % of Cmp 1a and -5 % of Cmp 1a at GPR139 [1] (setting [19]); 75 % of Cmp 1a and 80 % of Cmp 1a and 81 % of Cmp 1a on GPR139 [1] (setting [20]); 35.6047 % of Cmp 1a and 34.6013 % of Cmp 1a and 39.6569 % of Cmp 1a on GPR139 [2]. For the same molecule, the EC50 at GPR139 [1] (setting [8]) was 3.98 µM. Moreover, on GPR139 [1] (setting [9]), the Emax came to 100 ± 7%. The “Ca2+ signal (% of Carbachol)” value in test [3] was -17 % of Carbachol and -15 % of Carbachol.

On to `CC(NC(=O)Cn1cncc(-c2ccccc2)c1=O)c1ccccc1` (stereo not drawn) [Compound 5, C[C@@H](NC(=O)CN1C=NC=C(C=2C=CC=CC2)C1=O)C=3C=CC=CC3], for which the “Ca2+ signal (% of Cmp 1a)” value at GPR139 [1] (setting [4]) was 0.9 % of Cmp 1a and -12.1 % of Cmp 1a; at GPR139 [1] (setting [5]), 17.5 % of Cmp 1a and 11.9 % of Cmp 1a; at GPR139 [1] (setting [6]), 52.6 % of Cmp 1a and 31.9 % of Cmp 1a; on GPR139 [1] (setting [7]), 71 % of Cmp 1a and 78 % of Cmp 1a and 63 % of Cmp 1a; at GPR139 [1] (setting [10]), 91 % of Cmp 1a and 74 % of Cmp 1a and 86 % of Cmp 1a; on GPR139 [1] (setting [11]), 75 % of Cmp 1a and 51 % of Cmp 1a and 76 % of Cmp 1a. Moreover, the “Ca2+ signal (% of Cmp 1a)” value is 60 % of Cmp 1a and 41 % of Cmp 1a and 50 % of Cmp 1a on GPR139 [1] (setting [12]); 23 % of Cmp 1a (2×) and 24 % of Cmp 1a on GPR139 [1] (setting [13]); 16 % of Cmp 1a (2×) and 0.619 % of Cmp 1a on GPR139 [1] (setting [14]); 11 % of Cmp 1a on GPR139 [1] (setting [15]); 9 % of Cmp 1a and 2.21 % of Cmp 1a and 7 % of Cmp 1a at GPR139 [1] (setting [16]); 3.64 % of Cmp 1a and 0.518 % of Cmp 1a and 5.27 % of Cmp 1a on GPR139 [1] (setting [17]). Besides, the “Ca2+ signal (% of Cmp 1a)” value at GPR139 [1] (setting [18]) is 13 % of Cmp 1a and 0.00547 % of Cmp 1a and 8 % of Cmp 1a; at GPR139 [1] (setting [19]), 7 % of Cmp 1a and -1.29 % of Cmp 1a and 10 % of Cmp 1a; on GPR139 [1] (setting [20]), 71 % of Cmp 1a and 78 % of Cmp 1a and 63 % of Cmp 1a; at GPR139 [2], 38.6236 % of Cmp 1a and 37.7276 % of Cmp 1a and 30.4652 % of Cmp 1a. Further, the EC50 at GPR139 [1] (GPR139-CHOk1, read-out: EC50, Ca2+ mobilization) is 3.6 µM. Also, the Emax at GPR139 [1] (setting [9]) turned out to be 88 ± 4%. Moreover, in test [3], the “Ca2+ signal (% of Carbachol)” value is -15 % of Carbachol and -5 % of Carbachol.
